# In ChEMBL document CHEMBL1125524, “Adenosine A1 antagonists. 2. Structure-activity relationships on diuretic activities and protective effects against acute renal failure” (J Med Chem, 1992):
# Columns and labels:
# [1] = test system: Rattus norvegicus; test: Serum creatinine concentration measured after intraperitoneal administration of 1 mg/kg of compound to rats(vehicle 2.89+/-0.42); format: functional
# [2] = test system: Rattus norvegicus; test: Oral diuretic activity was measured after oral administration of 1.6 mg/kg to rats(control volume is 0.82+/-0.05); format: functional, Urine
# [3] = test system: Rattus norvegicus; test: Ratio of urinary excretion value (Na+ concentration) in treated rats to that in control rats, at a peroral dose of 0.4 mg/Kg; format: functional, Urine
# [4] = test system: Rattus norvegicus; test: Ratio of urinary excretion value (urinary volume) in treated rats to that in control rats, at a peroral dose of 6.25 mg/Kg; format: functional, Urine
# [5] = test system: Rattus norvegicus; test: Ratio of urinary excretion value (Na+ concentration) in treated rats to that in control rats, at a peroral dose of 6.25 mg/Kg; format: functional, Urine
# [6] = test system: Rattus norvegicus; test: Ratio of urinary excretion value (urinary volume) in treated rats to that in control rats, at a peroral dose of 1.6 mg/Kg; format: functional, Urine
# [7] = test system: Rattus norvegicus; test: Percent inhibition of serum creatinine by the compound given as ratio of Cr value in treated to vehicle treated ones after intraperitoneal administration of 1 mg/kg of compound to rats(vehicle 2.89+/-0.42); format: functional; details: ip
# [8] = test system: Rattus norvegicus; test: Ratio of sodium ion/potassium ion concentration in treated rats to that in control rats, at a peroral dose of 1.6 mg/Kg; format: functional
# [9] = test system: Rattus norvegicus; test: Effect on urinary excretion potassium and sodium after oral administration of 0.4 mg/kg to rats(potassium and sodium excretion in control rat is 0.191+/-0.021); format: functional, Urine
# [10] = molecular target: Adenosine A2 receptor (Rattus norvegicus, UniProt P29276+P30543)
# [11] = test system: Rattus norvegicus; test: Effect on urinary excretion potassium and sodium after oral administration of 1.6 mg/kg to rats(potassium and sodium excretion in control rat is 0.183+/-0.012); format: functional, Urine
# [12] = test system: Rattus norvegicus; test: Serum creatinine concentration measured after intraperitoneal administration of 1 mg/kg of compound to rats(vehicle 3.91+/-0.37); format: functional
# [13] = test system: Rattus norvegicus; test: Urea nitrogen concentration measured after intraperitoneal administration of 1 mg/kg of compound to rats(vehicle 128.9+/-9.3); format: functional
# [14] = test system: Rattus norvegicus; test: Percent inhibition of Urea nitrogen by the compound given as ratio of UN value in treated to vehicle treated ones after intraperitoneal administration of 1 mg/kg of compound to rats(vehicle 107.7+/-15.2); format: functional; details: ip
# [15] = test system: Rattus norvegicus; test: Percent inhibition of serum creatinine by the compound given as ratio of Cr value in treated to vehicle treated ones after intraperitoneal administration of 1 mg/kg of compound to rats(vehicle 3.91+/-0.37); format: functional; details: ip
# [16] = test system: Rattus norvegicus; test: Urea nitrogen concentration measured after intraperitoneal administration of 1 mg/kg of compound to rats(vehicle 107.7+/-15.2); format: functional
# [17] = test system: Rattus norvegicus; test: Percent inhibition of Urea nitrogen by the compound given as ratio of UN value in treated to vehicle treated ones after intraperitoneal administration of 1 mg/kg of compound to rats(vehicle 128.9+/-9.3); format: functional; details: ip
# [18] = test system: Rattus norvegicus; test: Ratio of urinary excretion value (urinary volume) in treated rats to that in control rats, at a peroral dose of 0.4 mg/Kg; format: functional, Urine
# [19] = test system: Rattus norvegicus; test: Ratio of urinary excretion value (Na+ concentration) in treated rats to that in control rats, at a peroral dose of 1.6 mg/Kg; format: functional, Urine
# [20] = test system: Rattus norvegicus; test: Ratio of sodium ion/potassium ion concentration in treated rats to that in control rats, at a peroral dose of 0.4 mg/Kg; format: functional
# [21] = test system: Rattus norvegicus; test: Oral diuretic activity was measured after oral administration of 0.4 mg/kg to rats(control volume is 0.99+/-0.07); format: functional, Urine
# [22] = test system: Rattus norvegicus; test: Urea nitrogen concentration measured after intraperitoneal administration of 1 mg/kg of compound to rats(vehicle 195.8+/-14.4); format: functional
# [23] = test system: Rattus norvegicus; test: Serum creatinine concentration measured after intraperitoneal administration of 1 mg/kg of compound to rats(vehicle 5.07+/-0.33); format: functional
# [24] = test system: Rattus norvegicus; test: Oral diuretic activity was measured after oral administration of 25 mg/kg to rats(control volume is 0.94+/-0.04); format: functional, Urine
# [25] = species on record: Rattus norvegicus; test: animal or person; details: ip, read-out: Inhibition, dose 1 mg/kg, route intraperitoneal
# [26] = test system: Rattus norvegicus; test: Effect on urinary excretion potassium and sodium after oral administration of 25 mg/kg to rats(potassium and sodium excretion in control rat is 0.130+/-0.009); format: functional, Urine
# [27] = molecular target: T1, Adenosine receptor A1 (Cavia porcellus, UniProt P47745)
# T1 sequence (P47745 whole entry): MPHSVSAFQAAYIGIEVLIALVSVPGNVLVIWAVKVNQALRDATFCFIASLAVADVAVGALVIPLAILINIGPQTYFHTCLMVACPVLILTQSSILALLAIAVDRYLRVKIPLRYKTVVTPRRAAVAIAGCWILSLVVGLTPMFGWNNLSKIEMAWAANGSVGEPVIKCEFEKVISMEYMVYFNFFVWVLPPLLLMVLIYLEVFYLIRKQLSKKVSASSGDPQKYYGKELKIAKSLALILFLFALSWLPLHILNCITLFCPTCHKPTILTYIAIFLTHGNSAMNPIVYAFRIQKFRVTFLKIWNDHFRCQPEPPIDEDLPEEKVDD
# Description: Binding affinity against adenosine A1 receptor in guinea pig forebrain membranes using N6-[3H]cyclohexyladenosine as radioligand
# [28] = test system: Rattus norvegicus; test: Ratio of urinary excretion value (Na+ concentration) in treated rats to that in control rats, at a peroral dose of 25 mg/Kg; format: functional, Urine
# [29] = test system: Rattus norvegicus; test: Ratio of urinary excretion value (urinary volume) in treated rats to that in control rats, at a peroral dose of 25 mg/Kg; format: functional, Urine
# [30] = test system: Rattus norvegicus; test: Percent inhibition of Urea nitrogen by the compound given as ratio of UN value in treated to vehicle treated ones after intraperitoneal administration of 1 mg/kg of compound to rats(vehicle 195.8+/-14.4); format: functional; details: Rattus norvegicus, ip
# [31] = test system: Rattus norvegicus; test: Oral diuretic activity was measured after oral administration of 25 mg/kg to rats(control volume is 0.80+/-0.04); format: functional, Urine
# [32] = test system: Rattus norvegicus; test: Serum creatinine concentration measured after intraperitoneal administration of 1 mg/kg of compound to rats(vehicle 3.86+/-0.27); format: functional
# [33] = test system: Rattus norvegicus; test: Urea nitrogen concentration measured after intraperitoneal administration of 1 mg/kg of compound to rats(vehicle 178+/-11.3); format: functional
# [34] = test system: Rattus norvegicus; test: Oral diuretic activity was measured after oral administration of 1.6 mg/kg to rats(control volume is […]+/-[…]); format: functional, Urine
# [35] = test system: Rattus norvegicus; test: Percent inhibition of Urea nitrogen by the compound given as ratio of UN value in treated to vehicle treated ones after intraperitoneal administration of 1 mg/kg of compound to rats(vehicle 178+/-11.3); format: functional; details: ip
# [36] = test system: Rattus norvegicus; test: Percent inhibition of serum creatinine by the compound given as ratio of Cr value in treated to vehicle treated ones fter intraperitoneal administration of 10 mg/kg of compound to rats(vehicle 3.94+/-0.24); format: functional; details: ip
# [37] = test system: Rattus norvegicus; test: Urea nitrogen concentration measured after intraperitoneal administration of 10 mg/kg of compound to rats(vehicle 141.3+/-6.6); format: functional
# [38] = test system: Rattus norvegicus; test: Percent inhibition of Urea nitrogen by the compound given as ratio of UN value in treated to vehicle treated ones fter intraperitoneal administration of 10 mg/kg of compound to rats(vehicle 141.3+/-6.6); format: functional; details: ip
# [39] = test system: Rattus norvegicus; test: Percent inhibition of serum creatinine by the compound given as ratio of Cr value in treated to vehicle treated ones after intraperitoneal administration of 1 mg/kg of compound to rats(vehicle 3.86+/-0.27); format: functional; details: ip
# [40] = test system: Rattus norvegicus; test: Ratio of sodium ion/potassium ion concentration in treated rats to that in control rats, at a peroral dose of 25 mg/Kg; format: functional
# [41] = test system: Rattus norvegicus; test: Effect on urinary excretion potassium and sodium after oral administration of 1.6 mg/kg to rats(potassium and sodium excretion in control rat is 0.261+/-0.008); format: functional, Urine
# [42] = test system: Rattus norvegicus; test: Serum creatinine concentration measured after intraperitoneal administration of 10 mg/kg of compound to rats(vehicle 3.94+/-0.24); format: functional
# [43] = test system: Rattus norvegicus; test: Effect on urinary excretion potassium and sodium after oral administration of 25 mg/kg to rats(potassium and sodium excretion in control rat is 0.134+/-0.004); format: functional, Urine
# [44] = test system: Rattus norvegicus; test: Urea nitrogen concentration measured after intraperitoneal administration of 10 mg/kg of compound to rats(vehicle 182.5+/-3.4); format: functional
# [45] = test system: Rattus norvegicus; test: Percent inhibition of serum creatinine by the compound given as ratio of Cr value in treated to vehicle treated ones after intraperitoneal administration of 10 mg/kg of compound to rats(vehicle 182.5+/-3.4); format: functional; details: ip
# [46] = test system: Rattus norvegicus; test: Serum creatinine concentration measured after intraperitoneal administration of 10 mg/kg of compound to rats(vehicle 5.43+/-0.11); format: functional
# [47] = test system: Rattus norvegicus; test: Oral diuretic activity was measured after oral administration of 1.6 mg/kg to rats(control volume is 0.69+/-0.03); format: functional, Urine
# [48] = test system: Rattus norvegicus; test: Oral diuretic activity was measured after oral administration of 25 mg/kg to rats(control volume is 0.91+/-0.08); format: functional, Urine
# [49] = test system: Rattus norvegicus; test: Effect on urinary excretion potassium and sodium after oral administration of 25 mg/kg to rats(potassium and sodium excretion in control rat is 0.193+/-0.016); format: functional, Urine
# [50] = test system: Rattus norvegicus; test: Effect on urinary excretion potassium and sodium after oral administration of 1.6 mg/kg to rats(potassium and sodium excretion in control rat is 0.079+/-0.007); format: functional, Urine
# [51] = test system: Rattus norvegicus; test: Percent inhibition of Urea nitrogen by the compound given as ratio of UN value in treated to vehicle treated ones after intraperitoneal administration of 10 mg/kg of compound to rats(vehicle 182.5+/-3.4); format: functional; details: ip
smiles,measurement,setting,value
CCCn1c(=O)c2c(nc(C(C3CC3)C3CC3)n2C)n(CCC)c1=O,Cr,[1],1.63 mg/dL
same,Urine volume,[2],1.48 ml 6hr-1 100g-1
same,T/C,[3],0.91
same,T/C,[4],1.78
same,T/C,[5],2.14
same,T/C,[6],1.8
same,inhibition in vivo at 1 mg/kg,[7],44%
same,Na+/K+,[8],1.21
same,Na,[9],0.174 m equiv 6hr-1 100g-1
same,Ki,[10],29000 nM
same,Na,[11],0.271 m equiv 6hr-1 100g-1
same,Cr,[12],4.49 mg/dL
same,UN,[13],136.5 mg/dL
same,inhibition in vivo at 1 mg/kg,[14],50%
same,inhibition in vivo at 1 mg/kg,[15],-15%
same,UN,[16],54.1 mg/dL
same,inhibition in vivo at 1 mg/kg,[17],6%
same,T/C,[18],0.97
same,T/C,[19],1.48
same,Na+/K+,[20],0.94
same,Urine volume,[21],0.96 ml 6hr-1 100g-1
CCCn1c(=O)c2nc(C3CC4C=CC3C4)[nH]c2n(CCC)c1=O (stereo in doubt; 18),UN,[22],92.7 mg/dL
same,Cr,[23],2.23 mg/dL
same,Urine volume,[24],1.75 ml 6hr-1 100g-1
same,Ki,[10],210 nM
same,inhibition in vivo at 1 mg/kg,[25],56%
same,Na,[26],0.271 m equiv 6hr-1 100g-1
same,Ki,[27],3.4 nM
same,T/C,[28],2.09
same,T/C,[29],1.87
same,inhibition in vivo at 1 mg/kg,[30],53%
Cn1c(=O)c2nc(-c3ccccc3)[nH]c2n(C)c1=O [8-PHENYL THEOPHYLLINE],Urine volume,[31],1.1 ml 6hr-1 100g-1
same,Cr,[32],3.14 mg/dL
same,UN,[33],148.3 mg/dL
same,T/C,[4],1.79
same,T/C,[5],1.54
same,T/C,[6],0.63
same,Urine volume,[34],0.88 ml 6hr-1 100g-1
same,inhibition in vivo at 1 mg/kg,[35],17%
same,inhibition in vivo at 10 mg/kg,[36],56%
same,UN,[37],62.4 mg/dL
same,Na+/K+,[8],0.87
same,inhibition in vivo at 10 mg/kg,[38],56%
same,Ki,[10],2300 nM
same,inhibition in vivo at 1 mg/kg,[39],19%
same,Ki,[27],1600 nM
same,T/C,[28],1.39
same,T/C,[29],1.38
same,Na+/K+,[40],1.39
same,Na,[41],0.175 m equiv 6hr-1 100g-1
same,Cr,[42],1.74 mg/dL
same,Na,[43],0.201 m equiv 6hr-1 100g-1
same,T/C,[19],0.87
Cn1c(=O)c2nc[nH]c2n(C)c1=O.O [THEOPHYLLINE],UN,[44],174 mg/dL
same,T/C,[4],1.42
same,T/C,[5],1.52
same,T/C,[6],1.03
same,inhibition in vivo at 10 mg/kg,[45],2%
same,Cr,[46],5.32 mg/dL
same,Urine volume,[47],0.71 ml 6hr-1 100g-1
same,Na+/K+,[8],1.06
same,Urine volume,[48],1.22 ml 6hr-1 100g-1
same,T/C,[28],2.16
same,T/C,[29],1.34
same,Na+/K+,[40],1.08
same,Na,[49],0.417 m equiv 6hr-1 100g-1
same,Na,[50],0.09 m equiv 6hr-1 100g-1
same,inhibition in vivo at 10 mg/kg,[51],5%
same,T/C,[19],1.14
